Measurements taken from ChEMBL document CHEMBL5537119 (Eur J Med Chem, 2024).
Values belong to the compound of their own block, whether it stands above or below them. Activity calls are given as the source filed them. The calls are words filed in the database; no cut-off is given here.

Tests used:
[1] = test system: CAL-27; assay: Antiproliferative activity against human CAL-27 cells overexpressing HDAC4 assessed as inhibition of cell growth incubated for 72 hrs by MTT assay; assay type: functional, cell-based; settings: CAL-27, 72 h
[2] = Effect on p21 mRNA expression in human THP-1 cells assessed as fold increase in p21 mRNA expression at 7.9 uM incubated for 24 hrs by RT-PCR analysis; assay type: functional
[3] = test system: THP-1; assay: cells; settings: Homo sapiens, THP-1, 72 h
Description: Antiproliferative activity against human THP-1 cells assessed as inhibition of cell growth incubated for 72 hrs by MTT assay

[4] = test system: THP-1; assay: Effect on p21 protein expression in human THP-1 cells assessed as increase in p21 protein expression level at 7.9 uM incubated for 24 hrs by Western blot analysis; assay type: functional, cell-based
[5] = test system: CAL-27; assay: Antiproliferative activity against human CAL-27 cells without HDAC4 expression assessed as inhibition of cell growth incubated for 72 hrs by MTT assay; assay type: functional, cell-based; settings: CAL-27, 72 h
[6] = test system: THP-1; assay: Synergistic induction of apoptosis in human THP-1 cells assessed as increase in caspase3/7 activation at 5 uM incubated for 48 hrs in the presence of 7.9 nM bortezomib by Hoechst 33342 staining based assay; assay type: functional, cell-based
[7] = molecular target: Histone deacetylase 3 (Homo sapiens, UniProt O15379); assay: Inhibition of HDAC3 (unknown origin)
Sequence of Histone deacetylase 3 (O15379 whole entry): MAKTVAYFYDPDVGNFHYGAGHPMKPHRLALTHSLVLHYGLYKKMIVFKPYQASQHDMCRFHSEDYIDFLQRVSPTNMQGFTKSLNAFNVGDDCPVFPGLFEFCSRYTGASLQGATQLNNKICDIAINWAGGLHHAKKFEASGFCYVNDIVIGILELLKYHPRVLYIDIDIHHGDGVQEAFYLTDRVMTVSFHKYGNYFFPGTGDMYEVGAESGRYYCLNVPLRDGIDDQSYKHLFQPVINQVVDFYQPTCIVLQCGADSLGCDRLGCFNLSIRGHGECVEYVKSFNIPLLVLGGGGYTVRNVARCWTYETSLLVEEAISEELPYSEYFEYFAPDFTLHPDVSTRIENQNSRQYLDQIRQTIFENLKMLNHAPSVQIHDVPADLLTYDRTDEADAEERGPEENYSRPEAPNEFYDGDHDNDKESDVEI

[8] = test system: THP-1; assay: Induction of apoptosis in human THP-1 cells assessed as subG1 population at 5 uM incubated for 48 hrs by Propidium iodide staining based flow cytometric analysis; assay type: functional, cell-based
[9] = molecular target: T1, Protein deacetylase HDAC6 (Homo sapiens, UniProt Q9UBN7); assay: Inhibition of human recombinant HDAC6 using Boc-Lys(Ac)-AMC as substrate preincubated for 5 mins followed by substrate addition and measured after 90 mins by fluorescence based microplate reader analysis
T1 sequence (Q9UBN7 whole entry): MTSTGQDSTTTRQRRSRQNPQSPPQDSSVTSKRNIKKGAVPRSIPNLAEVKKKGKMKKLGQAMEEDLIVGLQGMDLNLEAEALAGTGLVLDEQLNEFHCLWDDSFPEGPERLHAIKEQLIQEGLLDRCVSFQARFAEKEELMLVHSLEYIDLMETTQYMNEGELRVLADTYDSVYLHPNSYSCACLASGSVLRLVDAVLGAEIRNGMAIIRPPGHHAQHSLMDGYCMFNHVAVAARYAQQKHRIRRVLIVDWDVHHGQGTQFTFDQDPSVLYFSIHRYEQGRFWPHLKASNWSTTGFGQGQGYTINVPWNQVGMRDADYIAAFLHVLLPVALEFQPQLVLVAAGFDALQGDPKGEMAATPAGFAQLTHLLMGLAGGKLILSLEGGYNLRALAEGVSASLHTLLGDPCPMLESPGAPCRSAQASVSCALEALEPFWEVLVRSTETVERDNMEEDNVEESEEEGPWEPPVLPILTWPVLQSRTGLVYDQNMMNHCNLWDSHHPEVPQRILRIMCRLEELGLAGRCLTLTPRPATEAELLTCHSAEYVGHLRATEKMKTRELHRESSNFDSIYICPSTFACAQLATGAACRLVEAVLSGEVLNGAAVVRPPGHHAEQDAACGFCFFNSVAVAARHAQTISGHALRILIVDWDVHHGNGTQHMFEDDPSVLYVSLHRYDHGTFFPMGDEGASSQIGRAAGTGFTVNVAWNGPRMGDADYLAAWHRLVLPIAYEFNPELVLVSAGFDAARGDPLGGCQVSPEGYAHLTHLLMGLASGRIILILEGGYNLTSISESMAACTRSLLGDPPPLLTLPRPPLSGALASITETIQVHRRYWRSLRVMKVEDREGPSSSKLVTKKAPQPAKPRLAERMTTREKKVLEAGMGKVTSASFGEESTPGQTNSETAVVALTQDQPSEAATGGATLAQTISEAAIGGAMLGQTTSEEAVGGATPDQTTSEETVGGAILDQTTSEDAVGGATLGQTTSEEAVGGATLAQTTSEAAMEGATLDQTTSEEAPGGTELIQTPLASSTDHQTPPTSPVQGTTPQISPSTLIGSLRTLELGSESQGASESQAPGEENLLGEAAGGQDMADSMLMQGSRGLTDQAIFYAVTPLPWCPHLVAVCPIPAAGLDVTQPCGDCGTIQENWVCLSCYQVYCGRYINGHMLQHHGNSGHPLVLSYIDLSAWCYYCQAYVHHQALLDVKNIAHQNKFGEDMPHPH

[10] = test system: THP-1; assay: Inhibition of Class IIa/8 HDAC in human THP-1 cells at 100 uM preincubated for 18 hrs followed by substrate addition and measured after 3 hrs by fluorescence based microplate reader assay relative to control; assay type: cell-based; settings: time 21.0 hrs, values are per cent of control
[11] = test system: THP-1; assay: Effect on p21 protein expression in human THP-1 cells assessed as increase in p21 protein expression level at 5 uM incubated for 24 hrs by Western blot analysis; assay type: functional, cell-based
[12] = test system: THP-1; assay: Antiproliferative activity against human THP-1 cells assessed as reduction in cell viability at 100 uM incubated for 72 hrs by MTT assay relative to control; assay type: functional
[13] = molecular target: Histone deacetylase 4 (Homo sapiens, UniProt P56524); assay: Inhibition of GST-tagged HDAC4 (unknown origin)
Sequence of Histone deacetylase 4 (P56524 whole entry): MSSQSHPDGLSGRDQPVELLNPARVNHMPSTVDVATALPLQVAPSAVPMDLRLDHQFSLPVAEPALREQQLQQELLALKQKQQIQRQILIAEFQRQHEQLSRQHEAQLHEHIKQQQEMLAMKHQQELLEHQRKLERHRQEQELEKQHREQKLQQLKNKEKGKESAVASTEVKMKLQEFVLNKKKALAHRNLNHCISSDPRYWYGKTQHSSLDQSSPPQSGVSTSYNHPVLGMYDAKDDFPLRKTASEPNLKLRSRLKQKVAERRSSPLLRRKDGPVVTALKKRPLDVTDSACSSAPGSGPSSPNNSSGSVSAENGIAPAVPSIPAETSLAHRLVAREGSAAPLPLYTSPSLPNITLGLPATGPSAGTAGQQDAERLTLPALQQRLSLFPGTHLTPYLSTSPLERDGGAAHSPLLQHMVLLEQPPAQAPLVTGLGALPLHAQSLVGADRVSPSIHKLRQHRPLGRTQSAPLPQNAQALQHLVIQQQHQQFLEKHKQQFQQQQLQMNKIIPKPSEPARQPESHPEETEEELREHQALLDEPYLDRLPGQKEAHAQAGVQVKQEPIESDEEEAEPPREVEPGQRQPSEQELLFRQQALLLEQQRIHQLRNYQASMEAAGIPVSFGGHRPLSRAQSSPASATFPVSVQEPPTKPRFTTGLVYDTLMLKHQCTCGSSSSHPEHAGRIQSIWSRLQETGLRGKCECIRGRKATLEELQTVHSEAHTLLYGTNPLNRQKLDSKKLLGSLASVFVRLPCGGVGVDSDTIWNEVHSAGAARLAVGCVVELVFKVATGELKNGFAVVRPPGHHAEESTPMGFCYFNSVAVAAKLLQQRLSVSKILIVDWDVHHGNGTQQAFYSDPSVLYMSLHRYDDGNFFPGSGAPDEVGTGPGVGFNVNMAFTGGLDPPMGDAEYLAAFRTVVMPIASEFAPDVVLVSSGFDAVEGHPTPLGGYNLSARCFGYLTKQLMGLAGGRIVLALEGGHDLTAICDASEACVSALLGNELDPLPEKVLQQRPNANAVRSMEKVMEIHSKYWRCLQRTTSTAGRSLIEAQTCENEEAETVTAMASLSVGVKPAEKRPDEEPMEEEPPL

[14] = test system: THP-1; assay: Inhibition of Class I/IIb HDAC in human THP-1 cells at 100 uM preincubated for 18 hrs followed by substrate addition and measured after 3 hrs by fluorescence based microplate reader assay relative to control; assay type: cell-based; settings: time 21.0 hrs
[15] = Inhibition of Class IIa/8 HDAC in human THP-1 cells preincubated for 18 hrs followed by substrate addition and measured after 3 hrs by fluorescence based microplate reader assay; assay type: cell-based
[16] = molecular target: T2, Histone deacetylase 11 (Homo sapiens, UniProt Q96DB2); assay: Inhibition of HDAC11 (unknown origin)
T2 sequence (Q96DB2 whole entry): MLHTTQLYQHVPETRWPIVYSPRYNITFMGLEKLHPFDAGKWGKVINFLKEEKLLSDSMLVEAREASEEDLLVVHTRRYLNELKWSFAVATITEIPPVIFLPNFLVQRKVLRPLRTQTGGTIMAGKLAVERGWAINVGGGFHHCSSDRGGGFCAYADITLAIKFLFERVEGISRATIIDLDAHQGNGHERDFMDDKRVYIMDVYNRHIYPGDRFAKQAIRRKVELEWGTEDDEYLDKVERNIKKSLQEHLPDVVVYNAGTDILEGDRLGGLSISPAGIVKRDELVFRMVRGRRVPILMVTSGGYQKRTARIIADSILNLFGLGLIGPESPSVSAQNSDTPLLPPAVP

[17] = test system: CAL-27; assay: Antitumor activity against human CAL-27 cells without HDAC4 expression xenografted in chick embryo chorio allantoic membrane assessed as reduction in cell proliferation at 5 uM; assay type: functional, cell-based
[18] = Inhibition of Class I/IIb HDAC in human THP-1 cells preincubated for 18 hrs followed by substrate addition and measured after 3 hrs by fluorescence based microplate reader assay; assay type: cell-based
[19] = test system: CAL-27; assay: Antitumor activity against human CAL-27 cells overexpressing HDAC4 implanted in chick embryo chorio allantoic membrane assessed as reduction in cell proliferation at 5 uM; assay type: functional, cell-based
[20] = molecular target: Histone deacetylase 5 (Homo sapiens, UniProt Q9UQL6); assay: Inhibition of HDAC5 (unknown origin)
Sequence of Histone deacetylase 5 (Q9UQL6 whole entry): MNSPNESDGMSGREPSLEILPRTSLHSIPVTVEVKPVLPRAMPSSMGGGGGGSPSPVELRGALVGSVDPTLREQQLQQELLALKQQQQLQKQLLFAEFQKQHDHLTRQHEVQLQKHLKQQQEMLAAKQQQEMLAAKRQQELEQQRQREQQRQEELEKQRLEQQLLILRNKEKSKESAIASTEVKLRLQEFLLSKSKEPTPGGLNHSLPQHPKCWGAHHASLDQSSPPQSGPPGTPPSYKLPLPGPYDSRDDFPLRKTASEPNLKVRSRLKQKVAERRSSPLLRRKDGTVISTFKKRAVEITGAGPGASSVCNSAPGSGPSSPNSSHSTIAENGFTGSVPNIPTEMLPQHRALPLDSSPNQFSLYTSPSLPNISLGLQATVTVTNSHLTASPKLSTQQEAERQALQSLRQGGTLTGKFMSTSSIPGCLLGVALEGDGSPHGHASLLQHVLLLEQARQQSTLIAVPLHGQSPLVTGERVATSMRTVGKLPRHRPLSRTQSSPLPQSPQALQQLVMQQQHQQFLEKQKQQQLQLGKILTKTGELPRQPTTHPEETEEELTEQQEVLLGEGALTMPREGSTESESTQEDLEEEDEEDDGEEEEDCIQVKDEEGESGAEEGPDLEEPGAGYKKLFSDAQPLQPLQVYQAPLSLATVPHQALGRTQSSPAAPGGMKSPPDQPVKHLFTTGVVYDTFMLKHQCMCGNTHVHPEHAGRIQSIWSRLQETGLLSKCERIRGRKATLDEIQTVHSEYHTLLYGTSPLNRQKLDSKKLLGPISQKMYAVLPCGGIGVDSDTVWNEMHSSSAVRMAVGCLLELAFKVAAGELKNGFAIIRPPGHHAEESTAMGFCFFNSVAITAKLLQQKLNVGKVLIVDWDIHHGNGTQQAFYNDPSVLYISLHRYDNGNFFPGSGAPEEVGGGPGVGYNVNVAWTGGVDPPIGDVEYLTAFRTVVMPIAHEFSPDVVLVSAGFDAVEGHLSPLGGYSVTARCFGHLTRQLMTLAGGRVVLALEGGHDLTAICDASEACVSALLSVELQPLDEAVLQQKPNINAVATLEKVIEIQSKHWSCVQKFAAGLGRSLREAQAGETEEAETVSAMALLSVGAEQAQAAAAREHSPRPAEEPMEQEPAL

[21] = molecular target: T3, Histone deacetylase 8 (Homo sapiens, UniProt Q9BY41); assay: Inhibition of human recombinant HDAC8 using Boc-Lys-(Tfa)-AMC as substrate preincubated for 5 mins followed by substrate addition and measured after 90 mins by fluorescence based microplate reader analysis
T3 sequence (Q9BY41 whole entry): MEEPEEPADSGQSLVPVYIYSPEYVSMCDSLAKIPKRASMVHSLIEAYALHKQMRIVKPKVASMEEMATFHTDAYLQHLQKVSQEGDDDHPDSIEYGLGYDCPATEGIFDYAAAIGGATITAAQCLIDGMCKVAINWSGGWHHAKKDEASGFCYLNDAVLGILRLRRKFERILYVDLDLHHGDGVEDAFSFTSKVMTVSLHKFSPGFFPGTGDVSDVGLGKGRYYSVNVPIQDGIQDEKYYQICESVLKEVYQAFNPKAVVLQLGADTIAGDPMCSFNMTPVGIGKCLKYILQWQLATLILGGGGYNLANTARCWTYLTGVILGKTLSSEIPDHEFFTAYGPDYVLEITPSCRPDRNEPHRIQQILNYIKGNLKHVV

[22] = test system: THP-1; assay: Induction of apoptosis in human THP-1 cells assessed as caspase3/7 activation at 5 uM incubated for 48 hrs by Hoechst 33342 staining based assay; assay type: functional, cell-based
[23] = test system: THP-1; assay: Synergistic effect on p21 protein expression in human THP-1 cells assessed as increase in p21 protein expression level at 5 uM incubated for 24 hrs in the presence of 7.9 nM bortezomib by Western blot analysis; assay type: functional, cell-based
[24] = test system: THP-1; assay: Synergistic induction of apoptosis in human THP-1 cells assessed as increase in subG1 population at 5 uM incubated for 48 hrs in the presence of 7.9 nM bortezomib by Propidium iodide staining based flow cytometric analysis; assay type: functional, cell-based
[25] = molecular target: Histone deacetylase 2 (Homo sapiens, UniProt Q92769); assay: Inhibition of human recombinant HDAC2 using Boc-Lys(Ac)-AMC as substrate preincubated for 5 mins followed by substrate addition and measured after 90 mins by fluorescence based microplate reader analysis
Sequence of Histone deacetylase 2 (Q92769 whole entry): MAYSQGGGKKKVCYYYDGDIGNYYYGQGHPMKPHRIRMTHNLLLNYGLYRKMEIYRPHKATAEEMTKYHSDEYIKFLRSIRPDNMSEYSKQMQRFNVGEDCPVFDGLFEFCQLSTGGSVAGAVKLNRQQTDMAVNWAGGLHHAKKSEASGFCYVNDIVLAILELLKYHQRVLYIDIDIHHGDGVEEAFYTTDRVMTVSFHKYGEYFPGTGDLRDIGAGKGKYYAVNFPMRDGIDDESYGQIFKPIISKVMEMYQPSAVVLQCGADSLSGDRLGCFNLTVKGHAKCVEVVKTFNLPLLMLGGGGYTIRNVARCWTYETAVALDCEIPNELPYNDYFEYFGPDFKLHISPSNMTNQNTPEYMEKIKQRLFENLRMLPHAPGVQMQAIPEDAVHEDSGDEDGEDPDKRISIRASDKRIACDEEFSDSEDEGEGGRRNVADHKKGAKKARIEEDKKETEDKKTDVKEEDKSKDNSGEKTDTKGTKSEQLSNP

IC50 [3]: 0.00628 µM
SMILES: CC(C)C[C@H](NC(=O)[C@H](Cc1ccccc1)NC(=O)c1cnccn1)B(O)O [BORTEZOMIB]
IC50 [1]: 4.73 µM
fold change (FC) [2]: 2.5
Activity [4]: Active
IC50 [5]: 7.6 µM

IC50 [7]: 3.82 µM
IC50 [9]: 5.79 µM
IC50 [13]: 0.017 µM
IC50 [3]: 9.24 µM
IC50 [15]: 0.077 µM
IC50 [16]: 66 µM
IC50 [18]: 10.9 µM
IC50 [20]: 0.019 µM
IC50 [21]: 4.26 µM
IC50 [25]: 6.13 µM
SMILES: CCN(CC)CCNC(=O)c1ccc(-c2noc(C(F)(F)F)n2)cc1
Activity [6]: Active
Activity [8]: inactive
IC50 [1]: 8.63 µM
residual activity [10]: 100%
Activity [11]: Active
Activity [12]: 80%
inhibition [14]: 93%
Activity [17]: Active
Activity [19]: Active
IC50 [5]: 22.5 µM
Activity [22]: inactive
Activity [23]: Active
Activity [24]: Active
